Source: patent US20210283097A1, “METHODS OF DIAGNOSING AND TREATING ALZHEIMER'S DISEASE WITH S-EQUOL” (Ausio Pharmaceuticals, LLC, priority 2016, published 2021)
“Also recorded” adds a separate entry of the source.

Columns and labels:
[1] = test system: platelet mitochondria cytochrome oxidase (COX); assay: Platelet mitochondria COX activity referenced to CS activity (COX/CS) in Alzheimer's disease subjects, single-blind pilot clinical study; type: in vivo, human; conditions: for COX/CS Visit 2 (Mean + SEM): after two weeks of S-equol 10 mg twice a day
Method: (§1) Alzheimer's disease subjects were recruited through the University of Kansas Alzheimer's Disease Center (ADC). The ADC maintains a clinical cohort whose routine characterizations include Clinical Dementia Rating (CDR) scale ratings, uniform data set (UDS) cognitive testing, and APOE genotyping. The diagnosis of clinic cohort participants is primarily based on CDR and UDS data, and is determined through a consensus conference that includes subspecialty-trained cognitive neurologists and an expert neuropsychologist. Subjects diagnosed with Alzheimer's disease further meet current criteria for that diagnosis in McKhann et al., Alzheimers Dement, 7 (2011) 263-269.
(§2) To qualify for the study, participants had to be female with very mild (CDR 0.5) or mild (CDR 1) Alzheimer's disease. Each participant was required to have a study partner. As part of the informed consent process, the subjects and study partners were told that during different parts of the study the participants would receive either an S-equol capsule or an inert placebo. The placebo could not be distinguished from the S-equol by sight, touch, or taste so although the investigators knew whether participants at any given point were receiving S-equol or placebo, the participants themselves were blind to the actual treatment. The S-equol and placebo capsule were provided by Ausio Pharmaceuticals, LLC (Cincinnati, Ohio).
(§3) Subjects received a two week supply of medication, which uniformly consisted of placebo, and were instructed to take the study medication twice a day. At the end of this initial two-week period participants returned to the ADC clinical trials unit for their first study visit (visit 1; lead-in evaluation). Visit 1 procedures included an assessment of study medication compliance, vital signs, a query for perceived side effects, the Montreal Cognitive Assessment (MoCA), and a 40 ml phlebotomy; the blood was used to measure platelet mitochondria cytochrome oxidase (COX) and citrate synthase (CS) activities. At the completion of this visit the next two weeks of study medication was dispensed, which uniformly consisted of 10 mg S-equol capsule.
(§4) At the end of this second two-week period participants returned to the ADC clinical trials unit for their second study visit (visit 2; active treatment evaluation). The same procedures were performed during the lead-in evaluation and dispensed the next two weeks of study medication, which at this point uniformly consisted of placebo.
(§5) At the end of this final two-week period the participants returned to the ADC clinical trials unit for their third study visit (visit 3; wash-out evaluation). The lead-in and active treatment evaluation procedures were performed again, which completed participation in this single-blind study.
Forty milliliter blood samples were collected in tubes containing acid-citrate-dextrose (ACD) tubes as an anticoagulant, and maintained at room temperature. Within 24 hours of phlebotomy the blood was processed by the ADC Mitochondrial Genomics and Metabolism Core. To initiate the processing procedure, platelets were isolated by centrifugation and enriched mitochondrial fractions prepared using previously described methods. Such procedures involved nitrogen cavitation to rupture platelets followed by centrifugation to collect mitochondria.
The protein concentrations of the enriched mitochondrial fractions were measured using a BCA protein assay kit (BioRad, Hercules, Calif.). COX Vmax activity was determined as a pseudo first order-rate constant (sec−1/mg) by measuring the oxidation of reduced cytochrome c at 550 nm.
In addition to measuring COX activity, each sample's citrate synthase (CS) Vmax activity (nmol/min/mg) was measured. This assay was performed spectrophotometrically by following the formation of 5-thio-2-nitrobenzoate (412 nm) following the addition of 100 μM oxaloacetate at 30° C. […]

[2] = Montreal Cognitive Assessment (MoCA) in Alzheimer's disease subjects, single-blind pilot clinical study; type: in vivo, human; conditions: for MoCA Visit 2 (Mean + SEM): visit 2 = after two weeks of S-equol 10 mg twice a day; for percent MoCA score change between visit 1 and visit 2 (trend): FIG. 1
Method: as §1, §2, §3, §4, §5
Secondary outcomes included a safety analysis of the S-equol 10 mg twice per day dose and an analysis of MoCA scores.
In addition to summarizing MoCA scores by means and standard errors, the percent change between visit 1 and visit 2 scores, as well as the percent change between visit 1 and visit 3 scores, was calculated for each participant.

[3] = Safety analysis of S-equol 10 mg twice per day in Alzheimer's disease subjects; type: in vivo, human; conditions: 10 mg twice per day for two weeks, Alzheimer's disease patients
Method: as §3, §4
At the end of this final two-week period the participants returned to the ADC clinical trials unit for their third study visit (visit 3; wash-out evaluation). The lead-in and active treatment evaluation procedures were performed again, which completed participation in this single-blind study. […]

rat hippocampal neurons = conditions: cited from earlier work
cytochrome oxidase (COX) = conditions: brains from ovariectomized mice; cited from earlier work

Compound: Oc1ccc([C@H]2COc3cc(O)ccc3C2)cc1 [S-equol]
- COX/CS Visit 2 (Mean + SEM) ([1]; APOE4 Carriers, 8 participants): 4.3E−05 ± 3.5E−06
- COX/CS Visit 2 (Mean + SEM) ([1]; APOE4 non-Carriers, Outlier Excluded, 6 participants): 4.7E−05 ± 7.1E−06
- COX/CS Visit 2 (Mean + SEM) ([1]; APOE4 non-Carriers, Outlier Included, 7 participants): 9.2E−05 ± 4.6E−05
- percent COX/CS change between visit 1 and visit 2 (trend), non-APOE4 carriers versus APOE4 carriers ([1]; FIGS. 3(A) and 3(B)): trended higher
- difference in mean COX/CS values between visits, or between APOE4 carriers and non-carriers ([1]; Table 3): No significant differences
- COX/CS Visit 2 (Mean + SEM) ([1]; Total, Outlier Excluded, 14 participants): 4.5E−05 ± 3.5E−06
- COX/CS Visit 2 (Mean + SEM) ([1]; Total, Outlier Included, 15 participants): 6.6E−05 ± 2.2E−05
- participants with a positive COX/CS response pattern (responders) ([1]; slope visit 1 to 2 greater than slope visit 2 to 3, COX activity referenced to CS activity): 11 of the 15
- MoCA Visit 2 (Mean + SEM) ([2]; APOE4 Carriers, 8 participants): 15.8 ± 2.5
- percent MoCA score change between visit 1 and visit 2 (trend) ([2]; APOE4 carriers): trended in a downward direction
- MoCA Visit 2 (Mean + SEM) ([2]; APOE4 non-Carriers, 7 participants): 13.3 ± 2.1
- percent MoCA score change between visit 1 and visit 2 (trend) ([2]; APOE4 non-carriers): upward direction
- difference in mean MoCA scores between visits, or between APOE4 carriers and non-carriers ([2]; Table 2): No significant differences
- MoCA Visit 2 (Mean + SEM) ([2]; Total, 15 participants): 14.6 ± 6.6
- adverse events [3]: No treatment-related adverse events; also recorded: No adverse events occurred
- respiratory and maximal glycolysis fluxes (rat hippocampal neurons): increase
- cytochrome oxidase (COX) activity and COX1 protein levels (cytochrome oxidase (COX)): increase
